# Results: patent US8163793B2, “Proline derivatives” (Hoffman-La Roche Inc., priority 2009, dated 2012)
# Where two headings read alike, the source gives them in different places.
# Experiments:
# Cathepsin S = Cathepsin S (UniProt P25774); assay: Cathepsin enzyme inhibition assay (fluorogenic peptide substrate Z-Val-Val-Arg-AMC), Cathepsin S; type: biochemical, human and mouse
# Summary of the method: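 Compounds were combined with 1 nM human or mouse enzyme, and substrate then started the reaction. The buffer was potassium phosphate (100 mM, pH 6.5) containing EDTA-Na 5 mM, Triton X-100 0.001% and […] 5 mM.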
# Cat L = Cat L (UniProt P07711); assay: Cathepsin enzyme inhibition assay (fluorogenic peptide substrate Z-Val-Val-Arg-AMC), Cathepsin L; type: biochemical, human and mouse
# Summary of the method: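 Fluorogenic cleavage of Z-Val-Val-Arg-AMC (20 μM) by 1 nM Cat L was monitored at ex 360/em 465 nm for 20 min, the linear phase. The buffer was 100 mM potassium phosphate pH 6.5 with 5 mM EDTA and DTT. IC50 values were derived by standard methods, in μM.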
# [1] = enzyme 1 nM, substrate 20 μM, pH 6.5; read-out: CatS IC50
# [2] = enzyme 1 nM, substrate 20 μM, pH 6.5; read-out: CatL IC50
SMILES,IC50 (Cathepsin S; [1]) [nM],IC50 (Cat L; [2]) [nM],"IC50 (Cathepsin S; read-out: CatS IC50; enzyme 1 nM, substrate 20 μM, pH 6.5) [nM]","IC50 (Cat L; read-out: CatL IC50; enzyme 1 nM, substrate 20 μM, pH 6.5) [nM]"
"N#CC1(NC(=O)[C@@H]2C[C@@H](S(=O)(=O)c3ccc(F)cc3Cl)CN2C(=O)C2(c3ccc(Cl)nc3)CC2)CC1 [Example 368, (2S,4R)-4-(2-Chloro-4-fluoro-benzenesulfonyl)-1-[1-(6-chloro-pyridin-3-yl)-cyclopropanecarbonyl]-pyrrolidine-2-carboxylic acid (1-cyano-cyclopropyl)-amide]",0.21,267,–,–
"C[C@H](Oc1ccc(S(=O)(=O)[C@@H]2C[C@@H](C(=O)NC3(C#N)CC3)N(C(=O)C3(C(F)(F)F)CC3)C2)c(Cl)c1)C(F)(F)F [Example 183, (2S,4R)-4-[2-Chloro-4-((S)-2,2,2-trifluoro-1-methyl-ethoxy)-benzenesulfonyl]-1-(1-trifluoromethyl-cyclopropanecarbonyl)-pyrrolidine-2-carboxylic acid (1-cyano-cyclopropyl)-amide]",0.44,9670,–,–
"Cn1cc(-c2ccc(S(=O)(=O)[C@@H]3C[C@@H](C(=O)NC4(C#N)CC4)N(C(=O)C4(C(F)(F)F)CC4)C3)c(C(F)(F)F)c2)cn1 [Example 238, (2S,4R)-4-[4-(1-Methyl-1H-pyrazol-4-yl)-2-trifluoromethyl-benzenesulfonyl]-1-(1-trifluoromethyl-cyclopropanecarbonyl)-pyrrolidine-2-carboxylic acid (1-cyano-cyclopropyl)-amide]",0.05,20800,–,–
"CC(C)C[C@]1(C(=O)NC2(C#N)CC2)C[C@H](S(C)(=O)=O)[C@@H](c2ccc(F)cc2)N1 [Example 123, (2R,4S,5R)-5-(4-Fluoro-phenyl)-2-isobutyl-4-methanesulfonyl-pyrrolidine-2-carboxylic acid (1-cyano-cyclopropyl)-amide]",2610,≥ 25000,–,–
"CC(C)C(C(=O)N1C[C@H](S(=O)(=O)c2ccccc2Cl)C[C@H]1C(=O)NC1(C#N)CC1)c1ccc(Cl)cc1 (stereo partly drawn) [Example 432, (2S,4R)-1-(2-(4-chlorophenyl)-3-methylbutanoyl)-4-(2-chlorophenylsulfonyl)-N-(1-cyanocyclopropyl)pyrrolidine-2-carboxamide]",0.595,115,–,–
"N#CC1(NC(=O)[C@@H]2C[C@@H](S(=O)(=O)c3ccccc3Cl)CN2C(=O)C2(c3ccc(Cl)cc3Cl)CC2)CC1 [Example 443, (2S,4R)-4-(2-Chloro-benzenesulfonyl)-1-[1-(2,4-dichloro-phenyl)-cyclopropanecarbonyl]-pyrrolidine-2-carboxylic acid (1-cyano-cyclopropyl)-amide]",0.605,22,–,–
"N#CC1(NC(=O)[C@@H]2C[C@@H](S(=O)(=O)c3ccc(OCC(F)(F)F)cc3Cl)CN2C(=O)C2(c3ccc4ccccc4c3)CC2)CC1 [Example 348, (2S,4R)-4-[2-Chloro-4-(2,2,2-trifluoro-ethoxy)-benzenesulfonyl]-1-(1-naphthalen-2-yl-cyclopropanecarbonyl)-pyrrolidine-2-carboxylic acid (1-cyano-cyclopropyl)-amide]",0.17,51,–,–
"N#CC1(NC(=O)[C@@H]2C[C@@H](S(=O)(=O)c3ccccc3C(F)(F)F)CN2c2cc(C3CC3)nn2C2CCC2)CC1 [Example 398, (2S,4R)-1-(2-Cyclobutyl-5-cyclopropyl-2H-pyrazol-3-yl)-4-(2-trifluoromethyl-benzenesulfonyl)-pyrrolidine-2-carboxylic acid (1-cyano-cyclopropyl)-amide]",0.555,18800,–,–
"Cc1cc(-c2ccc(S(=O)(=O)[C@@H]3C[C@@H](C(=O)NC4(C#N)CC4)N(C(=O)C4(C(F)(F)F)CC4)C3)c(C(F)(F)F)c2)ccn1 [Example 248, (2S,4R)-4-[4-(2-Methyl-pyridin-4-yl)-2-trifluoromethyl-benzenesulfonyl]-1-(1-trifluoromethyl-cyclopropanecarbonyl)-pyrrolidine-2-carboxylic acid (1-cyano-cyclopropyl)-amide]",–,–,0.55,54700
